Test results published in ChEMBL document CHEMBL2062514 (J Med Chem, 2012).

Assays:
[1] = target: T1, Adenosine receptor A1 (Homo sapiens) (UniProt P30542); test: Displacement of [3H]R-PIA from human recombinant adenosine A1 receptor expressed in CHO cells at 10 uM after 60 mins by liquid scintillation counting; type: cell-based
T1 sequence (whole entry): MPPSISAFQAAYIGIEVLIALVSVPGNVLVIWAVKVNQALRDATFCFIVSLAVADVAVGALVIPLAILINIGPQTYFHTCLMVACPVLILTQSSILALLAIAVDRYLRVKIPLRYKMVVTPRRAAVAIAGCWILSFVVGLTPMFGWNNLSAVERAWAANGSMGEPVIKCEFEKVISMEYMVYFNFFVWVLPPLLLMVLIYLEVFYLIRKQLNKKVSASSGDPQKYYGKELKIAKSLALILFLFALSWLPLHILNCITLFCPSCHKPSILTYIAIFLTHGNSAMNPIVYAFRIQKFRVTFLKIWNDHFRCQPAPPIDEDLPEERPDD

Adenosine receptor A2a [2] = target: T2, Adenosine receptor A2a (Homo sapiens, UniProt P29274); test: Displacement of [3H]CGS21680 from human recombinant adenosine A2A receptor expressed in HEK293 cells at 10 uM after 60 mins by liquid scintillation counting; type: cell-based
T2 sequence (P29274 whole entry): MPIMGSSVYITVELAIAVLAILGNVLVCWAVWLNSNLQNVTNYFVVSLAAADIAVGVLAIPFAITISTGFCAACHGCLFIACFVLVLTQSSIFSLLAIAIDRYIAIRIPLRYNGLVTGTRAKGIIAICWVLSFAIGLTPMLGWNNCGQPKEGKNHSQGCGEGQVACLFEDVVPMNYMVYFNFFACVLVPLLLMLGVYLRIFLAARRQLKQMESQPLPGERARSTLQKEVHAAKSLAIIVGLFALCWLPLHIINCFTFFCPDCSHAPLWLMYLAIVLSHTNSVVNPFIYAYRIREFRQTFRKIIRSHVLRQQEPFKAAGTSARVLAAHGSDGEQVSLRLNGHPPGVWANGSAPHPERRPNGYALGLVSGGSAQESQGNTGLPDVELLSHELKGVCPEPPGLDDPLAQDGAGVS

[3] = target: T3, Adenosine receptor A3 (Homo sapiens) (UniProt P0DMS8); test: Agonist activity at human recombinant adenosine A3 receptor expressed in CHO cells assessed as inhibition of forskolin-stimulated cAMP production at 10 uM incubated for 30 mins prior to forskolin-stimulation measured after 15 mins by enzyme immunoassay relative to NECA; type: functional, cell-based
T3 sequence (whole entry): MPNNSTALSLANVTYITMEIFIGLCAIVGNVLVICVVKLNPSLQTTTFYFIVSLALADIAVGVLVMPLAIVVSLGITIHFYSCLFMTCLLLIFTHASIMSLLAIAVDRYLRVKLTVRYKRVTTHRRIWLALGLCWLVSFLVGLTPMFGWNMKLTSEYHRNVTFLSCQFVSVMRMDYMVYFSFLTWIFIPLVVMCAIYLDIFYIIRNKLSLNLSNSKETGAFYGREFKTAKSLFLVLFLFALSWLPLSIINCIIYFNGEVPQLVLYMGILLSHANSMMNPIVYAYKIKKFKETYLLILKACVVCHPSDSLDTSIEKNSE

[4] = Selectivity ratio of Ki for mouse adenosine A3 receptor to Ki for human recombinant adenosine A3 receptor
[5] = target: T4, Adenosine receptor A1 (Mus musculus) (UniProt Q60612); test: Displacement of from mouse adenosine A1 receptor expressed in HEK293 cells at 10 uM after 60 mins by liquid scintillation counting; set-up: reference not given here
T4 sequence (whole entry): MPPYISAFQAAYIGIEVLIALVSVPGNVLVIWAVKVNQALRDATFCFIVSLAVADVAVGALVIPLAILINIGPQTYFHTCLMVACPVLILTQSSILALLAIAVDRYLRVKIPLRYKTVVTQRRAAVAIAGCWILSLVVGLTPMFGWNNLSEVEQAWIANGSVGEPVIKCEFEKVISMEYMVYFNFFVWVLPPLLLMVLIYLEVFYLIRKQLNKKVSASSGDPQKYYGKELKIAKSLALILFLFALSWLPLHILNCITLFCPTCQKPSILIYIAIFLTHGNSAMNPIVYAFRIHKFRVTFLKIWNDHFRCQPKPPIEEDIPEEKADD

Adenosine receptor A3 = target: T5, Adenosine receptor A3 (Mus musculus, UniProt Q61618); test: Displacement of [125I]I-AB-MECA from mouse adenosine A3 receptor expressed in HEK293 cells after 60 mins by liquid scintillation counting
T5 sequence (Q61618 whole entry): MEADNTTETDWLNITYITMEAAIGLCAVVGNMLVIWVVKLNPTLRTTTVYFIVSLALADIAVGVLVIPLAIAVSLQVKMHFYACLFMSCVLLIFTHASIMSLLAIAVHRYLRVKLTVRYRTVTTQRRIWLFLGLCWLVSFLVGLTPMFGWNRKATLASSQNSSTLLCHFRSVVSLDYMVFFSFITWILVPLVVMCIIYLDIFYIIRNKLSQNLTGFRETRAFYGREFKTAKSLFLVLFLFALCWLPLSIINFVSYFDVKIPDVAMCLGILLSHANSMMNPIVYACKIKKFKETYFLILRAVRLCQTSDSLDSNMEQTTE

[6] = target: Adenosine receptor A2a (Mus musculus) (UniProt Q60613); test: Displacement of [3H]CGS21680 from mouse adenosine A2A receptor expressed in HEK293 cells at 10 uM after 60 mins by liquid scintillation counting
Sequence of Adenosine receptor A2a (Mus musculus) (Q60613 whole entry): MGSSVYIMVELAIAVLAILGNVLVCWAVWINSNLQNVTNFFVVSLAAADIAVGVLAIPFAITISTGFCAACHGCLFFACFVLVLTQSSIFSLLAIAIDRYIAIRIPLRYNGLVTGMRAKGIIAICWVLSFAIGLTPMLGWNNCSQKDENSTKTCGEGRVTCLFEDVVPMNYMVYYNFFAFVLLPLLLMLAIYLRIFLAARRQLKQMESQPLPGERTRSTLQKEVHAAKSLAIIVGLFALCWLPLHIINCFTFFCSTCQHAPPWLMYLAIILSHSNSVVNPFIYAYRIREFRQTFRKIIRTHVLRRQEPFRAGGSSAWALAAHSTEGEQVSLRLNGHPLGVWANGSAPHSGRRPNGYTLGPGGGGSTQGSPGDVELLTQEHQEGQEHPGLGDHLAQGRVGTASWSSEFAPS

Adenosine receptor A2a [7] = target: T2, Adenosine receptor A2a; test: Displacement of [3H]CGS21680 from human recombinant adenosine A2A receptor expressed in HEK293 cells after 60 mins by liquid scintillation counting; type: cell-based
[8] = target: T6, Adenosine receptor A2b (Homo sapiens) (UniProt P29275); test: Agonist activity at human adenosine A2B receptor by cAMP accumulation assay relative to NECA; type: functional
T6 sequence (whole entry): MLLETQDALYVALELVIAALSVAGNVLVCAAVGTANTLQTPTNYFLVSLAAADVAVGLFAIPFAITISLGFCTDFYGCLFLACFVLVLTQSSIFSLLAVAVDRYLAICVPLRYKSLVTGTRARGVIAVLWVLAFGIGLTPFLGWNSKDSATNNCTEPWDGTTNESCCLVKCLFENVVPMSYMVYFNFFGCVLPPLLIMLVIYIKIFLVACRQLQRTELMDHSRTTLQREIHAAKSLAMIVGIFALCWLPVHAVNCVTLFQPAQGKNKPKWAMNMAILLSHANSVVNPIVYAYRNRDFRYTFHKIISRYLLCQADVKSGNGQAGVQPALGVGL

| SMILES | inhibition [1] | inhibition (Adenosine receptor A2a [2]) | Efficacy [3] | Ratio Ki [4] | inhibition [5] | Ki (Adenosine receptor A3) | inhibition [6] | Ki (Adenosine receptor A2a [7]) | Efficacy [8] |
| --- | --- | --- | --- | --- | --- | --- | --- | --- | --- |
| CNC(=O)[C@@]12C[C@@H]1[C@@H](n1cnc3c(NC)nc(C#Cc4ccc(Cl)cc4)nc31)[C@H](O)[C@@H]2O | 14% | 30% | 97.4% |  |  |  |  |  |  |
| CNC(=O)[C@@]12C[C@@H]1[C@@H](n1cnc3c(NC)nc(C#Cc4ccc(F)cc4)nc31)[C@H](O)[C@@H]2O | 21% | 19% | 80.3% | 70 | 29% | 37.7 nM | 0% |  |  |
| CNC(=O)[C@@]12C[C@@H]1[C@@H](n1cnc3c(NC)nc(C#Cc4cc(F)cc(F)c4)nc31)[C@H](O)[C@@H]2O | 8% | 47% | 99.6% |  |  |  |  |  |  |
| CNC(=O)[C@@]12C[C@@H]1[C@@H](n1cnc3c(NC)nc(C#Cc4ccc(F)c(F)c4)nc31)[C@H](O)[C@@H]2O | 6% | 6% | 108% |  |  |  |  |  |  |
| CNC(=O)[C@@]12C[C@@H]1[C@@H](n1cnc3c(NCc4cccc(Cl)c4)nc(C#Cc4ccccc4)nc31)[C@H](O)[C@@H]2O | 20% | 27% | 101% |  | 50% |  | 2% |  |  |
| CNC(=O)[C@@]12C[C@@H]1[C@@H](n1cnc3c(NC)nc(C#Cc4ccccc4)nc31)[C@H](O)[C@@H]2O | 13% | 14% |  |  |  |  |  |  |  |
| CNC(=O)[C@@]12C[C@@H]1[C@@H](n1cnc3c(NC)nc(C#Cc4ccccc4Cl)nc31)[C@H](O)[C@@H]2O | 27% | 30% | 84.2% | 70 | 55% | 37.2 nM | 2% |  |  |
| CNC(=O)[C@@]12C[C@@H]1[C@@H](n1cnc3c(NC)nc(C#Cc4ccccc4F)nc31)[C@H](O)[C@@H]2O | 21% | 17% | 97.7% |  |  |  |  |  |  |
| CNC(=O)[C@@]12C[C@@H]1[C@@H](n1cnc3c(NC)nc(C#Cc4cc5ccccc5c5ccccc45)nc31)[C@H](O)[C@@H]2O | 15% | 52% | 108% |  |  |  |  |  |  |
| CNC(=O)[C@@]12C[C@@H]1[C@@H](n1cnc3c(NC)nc(C#Cc4ccc(-c5ccccc5)cc4)nc31)[C@H](O)[C@@H]2O | 21% | 29% | 110% |  |  |  |  |  |  |
| CNC(=O)[C@@]12C[C@@H]1[C@@H](n1cnc3c(NC)nc(C#Cc4ccccn4)nc31)[C@H](O)[C@@H]2O | 11% | 13% |  |  |  |  |  |  |  |
| CNC(=O)[C@@]12C[C@@H]1[C@@H](n1cnc3c(NCc4cccc(I)c4)ncnc31)[C@H](O)[C@@H]2O |  |  | 100% |  |  |  |  |  |  |
| CNC(=O)[C@@]12C[C@@H]1[C@@H](n1cnc3c(NCc4cccc(Cl)c4)nc(C#Cc4cccc(Cl)c4)nc31)[C@H](O)[C@@H]2O | 4% |  | 91.5% |  | 35% | 2.39 nM | 55% | 1740 nM | 20% |
| CNC(=O)[C@@]12C[C@@H]1[C@@H](n1cnc3c(NC)nc(C#Cc4cccc(Cl)c4)nc31)[C@H](O)[C@@H]2O | 10% |  | 90.9% |  |  |  |  |  | 20% |
| CNC(=O)[C@@]12C[C@@H]1[C@@H](n1cnc3c(NC)nc(C#Cc4cccc(N)c4)nc31)[C@H](O)[C@@H]2O | 10% | 19% | 109% |  |  |  |  |  |  |
| CNC(=O)[C@@]12C[C@@H]1[C@@H](n1cnc3c(NCc4cccc(Cl)c4)nc(C#Cc4ccccc4Cl)nc31)[C@H](O)[C@@H]2O | 19% | 52% | 103% |  | 51% | 2.64 nM | 19% |  |  |
| CNC(=O)[C@@]12C[C@@H]1[C@@H](n1cnc3c(NC)nc(C#Cc4ccc(C(C)=O)cc4)nc31)[C@H](O)[C@@H]2O | 15% |  | 87.4% |  |  |  |  | 5300 nM | 20% |
| CNC(=O)[C@@]12C[C@@H]1[C@@H](n1cnc3c(NC)nc(C#Cc4cccc(F)c4)nc31)[C@H](O)[C@@H]2O | 12% | 10% | 95.8% |  |  |  |  |  |  |
| CCc1ccc(C#Cc2nc(NC)c3ncn([C@H]4[C@H](O)[C@H](O)[C@]5(C(=O)NC)C[C@H]45)c3n2)cc1 | 13% | 38% | 110% |  |  |  |  |  |  |
| CNC(=O)[C@@]12C[C@@H]1[C@@H](n1cnc3c(NC)nc(C#Cc4ccc(C(C)(C)C)cc4)nc31)[C@H](O)[C@@H]2O | 23% | 7% | 78.4% |  |  |  |  |  |  |
| CNC(=O)[C@@]12C[C@@H]1[C@@H](n1cnc3c(NCc4cccc(Cl)c4)nc(C#Cc4ccc(F)cc4)nc31)[C@H](O)[C@@H]2O | 20% | 42% | 102% |  | 65% | 2.38 nM | 7% |  | 20% |
| CNC(=O)[C@@]12C[C@@H]1[C@@H](n1cnc3c(NCc4cccc(Cl)c4)nc(C#Cc4ccc(-c5ccccc5)cc4)nc31)[C@H](O)[C@@H]2O | 2% | 0% | 89% | 3 | 41% | 10.8 nM | 6% |  |  |
| CNC(=O)[C@@]12C[C@@H]1[C@@H](n1cnc3c(NCc4cccc(Cl)c4)nc(C#Cc4ccc(F)c(F)c4)nc31)[C@H](O)[C@@H]2O (single isomer, unassigned) | 6% | 41% |  |  | 14% |  | 27% |  | 20% |
| CNC(=O)[C@@]12C[C@@H]1[C@@H](n1cnc3c(NC)nc(C#Cc4cccc5ccccc45)nc31)[C@H](O)[C@@H]2O | 25% | 34% | 94.6% |  |  |  |  |  |  |
| CNC(=O)[C@@]12C[C@@H]1[C@@H](n1cnc3c(NC)nc(C#Cc4ccc(Br)cc4)nc31)[C@H](O)[C@@H]2O | 13% | 26% | 97.5% |  |  |  |  |  |  |
| CNC(=O)[C@@]12C[C@@H]1[C@@H](n1cnc3c(NCc4cccc(Cl)c4)nc(C#Cc4ccc5ccc6cccc7ccc4c5c67)nc31)[C@H](O)[C@@H]2O | 8% |  | 77.8% |  | 8% | 47.6 nM | 64% | 3110 nM | 20% |
| CNC(=O)[C@@]12C[C@@H]1[C@@H](n1cnc3c(NCc4cccc(Cl)c4)nc(C#Cc4cccc(C(=O)O)c4)nc31)[C@H](O)[C@@H]2O | 6% | 38% | 86.7% |  | 18% | 3.66 nM | 22% |  |  |
